From patent US8283353B2, “Fused ring compound and use thereof” (Takeda Pharmaceutical Company Limited, priority 2009, dated 2012)

What was measured:
[1] = target: T1, human AT1 receptor (Homo sapiens, UniProt P30556); assay: AT1 receptor antagonistic activity: [125I]-angiotensin II binding assay on human AT1 receptor-expressing CHO-K1 cellular membrane fraction; conditions: 22.5 pM [125I]-angiotensin II, 1 hr room temperature
T1 construct: expressed in transfected cells; membrane fraction
T1 sequence (P30556 1-359): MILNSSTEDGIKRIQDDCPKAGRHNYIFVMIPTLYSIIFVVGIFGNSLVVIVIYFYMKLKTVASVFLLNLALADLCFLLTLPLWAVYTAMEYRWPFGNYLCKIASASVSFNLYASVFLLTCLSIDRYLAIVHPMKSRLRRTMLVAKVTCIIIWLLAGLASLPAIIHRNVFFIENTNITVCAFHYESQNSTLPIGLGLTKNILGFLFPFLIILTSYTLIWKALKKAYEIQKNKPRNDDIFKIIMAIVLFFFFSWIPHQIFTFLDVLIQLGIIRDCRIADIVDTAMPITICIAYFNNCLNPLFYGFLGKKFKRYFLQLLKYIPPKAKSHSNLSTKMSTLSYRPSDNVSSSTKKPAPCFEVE
Description: CHO-K1 cell (RIKEN, Japan) capable of stable expression of human AT1 receptor was cultured, recovered, suspended in homogenize buffer (10 mM NaHCO3 (pH 7.4), 5 mM EDTA, 1× Complete EDTA free) [manufactured by Roche, Switzerland], and homogenized. The homogenate was centrifuged at low-speed (900×g, 10 min, 4° C.), and the supernatant was recovered and ultracentrifuged (90,000×g, 1 hr, 4° C.). The supernatant was discarded, and the pellets were resuspended in suspension buffer (50 mM Tris (pH 7.4), 1 mM EDTA, 1× Complete EDTA free).
(9 μg) in the presence of AT1 membrane and test compound in 100 μl, (total reaction volume) of reaction buffer (50 mM Tris (pH 7.4), 10 mM MgCl2 supplemented or not supplemented with 0.3 mg/mL fatty acid-free bovine serum albumin [manufactured by Wako Pure Chemical Industries, Ltd., Japan]). The reaction mixture was incubated in 96 well polypropylene plate for 1 hr at room temperature, and the reaction was quenched by rapid filtration (96 well cell harvester) through a GF/C filter treated with wash buffer (50 mM Tris (pH 7.4)). Subsequently, the filter was washed 5 times with 0.3 mL of ice-cooled wash buffer. […] Total binding was measured in the presence of 1% DMSO and nonspecific binding was measured in the presence of […] Candesartan.

[2] = target: T2, human PPARγ (Homo sapiens, UniProt P37231); assay: PPARγ agonistic activity: luciferase reporter assay in PPARγ:RXRα:4ERPP/CHO-K1 cells; type: cell-based; conditions: CHO-K1, test compound 10^−6 M; luciferase activity of control compound X (1 μM) = 100%, non-administration group = 0%
T2 construct: expressed in transfected cells
T2 sequence (P37231 1-477 isoform P37231-2): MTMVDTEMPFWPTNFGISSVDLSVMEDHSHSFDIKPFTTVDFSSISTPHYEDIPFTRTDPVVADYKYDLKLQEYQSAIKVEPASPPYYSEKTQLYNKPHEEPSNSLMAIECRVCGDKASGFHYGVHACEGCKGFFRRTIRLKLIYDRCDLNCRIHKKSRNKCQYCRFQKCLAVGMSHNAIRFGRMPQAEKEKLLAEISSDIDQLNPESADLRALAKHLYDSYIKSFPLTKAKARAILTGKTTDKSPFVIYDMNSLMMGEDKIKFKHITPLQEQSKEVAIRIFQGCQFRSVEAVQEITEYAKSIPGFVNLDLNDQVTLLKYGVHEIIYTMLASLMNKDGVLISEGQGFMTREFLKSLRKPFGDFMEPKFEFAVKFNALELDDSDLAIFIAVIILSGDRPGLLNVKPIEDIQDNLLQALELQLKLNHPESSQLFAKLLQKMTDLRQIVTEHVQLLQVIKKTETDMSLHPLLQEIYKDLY
T2 sequence (P19793 1-462 partner): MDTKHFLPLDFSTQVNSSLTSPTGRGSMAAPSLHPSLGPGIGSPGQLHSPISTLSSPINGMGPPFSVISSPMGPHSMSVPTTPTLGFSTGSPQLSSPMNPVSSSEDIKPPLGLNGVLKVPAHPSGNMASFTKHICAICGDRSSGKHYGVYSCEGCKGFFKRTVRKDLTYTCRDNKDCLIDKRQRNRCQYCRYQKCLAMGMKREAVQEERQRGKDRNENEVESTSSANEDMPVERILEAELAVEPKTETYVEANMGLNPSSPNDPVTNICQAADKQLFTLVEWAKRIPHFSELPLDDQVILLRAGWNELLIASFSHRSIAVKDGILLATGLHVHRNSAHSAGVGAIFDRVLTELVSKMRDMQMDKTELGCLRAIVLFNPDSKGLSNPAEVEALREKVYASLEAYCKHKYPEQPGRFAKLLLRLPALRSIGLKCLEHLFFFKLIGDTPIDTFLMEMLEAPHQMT
Source text: A CHO-K1 cell cultured in a 150 cm^2 cell culture flask [manufactured by Corning Costar Corporation, USA] comprising Ham's F12 medium [manufactured by INVITROGEN, USA] supplemented with 10% fetal bovine serum [manufactured by INVITROGEN, USA] was taken off by treating with 0.5 g/L trypsin-0.2 g/L EDTA (ethylenediamine tetraacetate) [manufactured by Life Technologies, Inc., USA], and then the cell was washed with PBS (Phosphate-buffered saline) [manufactured by INVITROGEN, USA], centrifuged (1000 rpm, 5 minutes) and suspended in PBS. Subsequently, DNA was introduced into the cell under the conditions shown below using GENE PULSER [manufactured by Bio-Rad Laboratories, USA].
Namely, to a cuvette having a 0.4 cm gap were added 8×10^6 cells and 10 μg of plasmid pVgRXR2-hPPARγ obtained in the above-mentioned (4) and 10 μg of reporter plasmid pGL3-4ERPP-TK neo obtained in the above-mentioned (3), which was subjected to electroporation at the voltage of 0.25 kV under the capacitance of […] Subsequently, the cell was transferred into a F12 medium comprising 10% fetal bovine serum and cultured for 24 hours, and then the cell was taken off again and centrifuged. Then, the pellet was suspended in Ham's F12 medium comprising 10% fetal bovine serum supplemented with 500 μg/ml of Geneticin [manufactured by INVITROGEN, USA] and 250 μg/ml of Zeocin [manufactured by INVITROGEN, USA]. The obtained suspension was diluted to the density of 10^4 cells/ml and inoculated in a 96-well plate [manufactured by Corning Costar Corporation, USA], which was cultured in a CO2 gas incubator at 37° C., whereby obtaining a Geneticin- and Zeocin-resistant transformant.
Subsequently, after the transformed cell line thus obtained was cultured in a 24-well plate [manufactured by Corning Costar Corporation, USA], a cell line in which expression of the luciferase was induced, i.e., PPARγ:RXRα:4ERPP/CHO-K1 cell was selected by the addition of 10 μM pioglitazone hydrochloride.
PPARγ:RXRα:4ERPP/CHO-K1 cells obtained in the above-mentioned (5) were cultured in F12 medium [manufactured by INVITROGEN, USA] containing 10% fetal bovine serum [manufactured by MOREGATE, Australia], seeded in a 96 well half-area white plate [manufactured by Corning Coster Corporation, USA] at 5×10^3 cells/well, and cultured in a CO2 incubator at 37° C. overnight.
Then, the medium was removed from the 96 well half-area white plate, hamF12 medium containing 0.1% fatty acid-free bovine serum albumin (BSA) (45 μl) and a test compound (5 μl) were added, and the mixture was cultured in the CO2 incubator at 37° C. for 1 day. After removing the medium, Picagene 7.5 [manufactured by Dai Nippon Inki, Japan] (20 μl) diluted 2-fold with HBSS (HANKS' BALANCED SALT SOLUTION) [manufactured by BIO […], USA] was added, and the mixture was stirred. Using 1420 ARVO Multilabel Counter [manufactured by PerkinElmer, USA], luciferase activity was measured. The percentage (%) was calculated from the luciferase activity of the test compound when the luciferase activity of the control compound (compound X: 5-[3-(4-{[2-(2-furyl)-5-methyl-1,3-oxazol-4-yl]methoxy}-3-methoxyphenyl)propyl]-1,3-oxazolidine-2,4-dione) (1 μM) was taken as 100% and the luciferase activity of the test compound non-administration group was taken as 0%.

SMILES: CCCc1c(Cc2ccc(-c3ccccc3-c3noc(=O)[nH]3)cc2)c(=O)n(CC2CC2)c2ncnn12 [Example 21, 4-(cyclopropylmethyl)-6-{[2′-(5-oxo-4,5-dihydro-1,2,4-oxadiazol-3-yl)biphenyl-4-yl]methyl}-7-propyl[1,2,4]triazolo[1,5-a]pyrimidin-5(4H)-one]
- IC50 [1]: 2 nM
- activation at 1 µM [2]: 31%

SMILES: CCCc1c(Cc2ccc(-c3ccccc3-c3noc(=O)[nH]3)cc2)c(=O)n(Cc2ccc(C(C)=O)cc2)c2ncnn12 [Example 28, 4-(4-acetylbenzyl)-6-{[2′-(5-oxo-4,5-dihydro-1,2,4-oxadiazol-3-yl)biphenyl-4-yl]methyl}-7-propyl[1,2,4]triazolo[1,5-a]pyrimidin-5(4H)-one]
- IC50 [1]: 3 nM
- activation at 1 µM [2]: 49%

SMILES: CCCc1c(Cc2ccc(-c3ccccc3-c3noc(=O)[nH]3)cc2)c(=O)n(CCC)c2ncnn12 [Example 29, 6-{[2′-(5-oxo-4,5-dihydro-1,2,4-oxadiazol-3-yl)biphenyl-4-yl]methyl}-4,7-dipropyl[1,2,4]triazolo[1,5-a]pyrimidin-5(4H)-one]
- IC50 [1]: 3 nM
- activation at 1 µM [2]: 16%

SMILES: CCCc1c(Cc2ccc(-c3ccccc3-c3noc(=O)[nH]3)cc2F)c(=O)n(Cc2ccc(OC)cc2OC)c2ncnn12 [Example 37, 4-(2,4-dimethoxybenzyl)-6-{[3-fluoro-2′-(5-oxo-4,5-dihydro-1,2,4-oxadiazol-3-yl)biphenyl-4-yl]methyl}-7-propyl[1,2,4]triazolo[1,5-a]pyrimidin-5(4H)-one]
- IC50 [1]: 2.5 nM
- activation at 1 µM [2]: 33%

SMILES: CCCc1c(Cc2ccc(-c3ccccc3-c3noc(=O)[nH]3)cc2F)c(=O)n(-c2ccc(OC(C)C)cc2)c2ncnn12 [Example 43, 6-{[3-fluoro-2′-(5-oxo-4,5-dihydro-1,2,4-oxadiazol-3-yl)biphenyl-4-yl]methyl}-4-[4-(1-methylethoxy)phenyl]-7-propyl[1,2,4]triazolo[1,5-a]pyrimidin-5(4H)-one]
- IC50 [1]: 2.1 nM
- activation at 1 µM [2]: 34%

SMILES: CCCc1c(Cc2ccc(-c3ccccc3-c3noc(=O)[nH]3)cc2)c(=O)n(C(C)CC)c2nc(C)nn12 (stereo not shown) [Example 68, 2-methyl-4-(1-methylpropyl)-6-{[2′-(5-oxo-4,5-dihydro-1,2,4-oxadiazol-3-yl)biphenyl-4-yl]methyl}-7-propyl[1,2,4]triazolo[1,5-a]pyrimidin-5(4H)-one]
- IC50 [1]: 1.7 nM
- activation at 1 µM [2]: 17%

SMILES: CCCc1c(Cc2ccc(-c3ccccc3-c3noc(=O)[nH]3)cc2)c(=O)n(CC2(C)CC2)c2nc(C)nn12 [Example 69, 2-methyl-4-[(1-methylcyclopropyl)methyl]-6-{[2′-(5-oxo-4,5-dihydro-1,2,4-oxadiazol-3-yl)biphenyl-4-yl]methyl}-7-propyl[1,2,4]triazolo[1,5-a]pyrimidin-5(4H)-one]
- IC50 [1]: 1.4 nM
- activation at 1 µM [2]: 27%

SMILES: CCCc1c(Cc2ccc(-c3ccccc3-c3noc(=O)[nH]3)cc2)c(=O)n(CC(C)(C)COC)c2nc(C)nn12 [Example 73, 4-(3-methoxy-2,2-dimethylpropyl)-2-methyl-6-{[2′-(5-oxo-4,5-dihydro-1,2,4-oxadiazol-3-yl)biphenyl-4-yl]methyl}-7-propyl[1,2,4]triazolo[1,5-a]pyrimidin-5(4H)-one]
- IC50 [1]: 1.5 nM
- activation at 1 µM [2]: 20%

SMILES: CCCc1c(Cc2ccc(-c3ccccc3-c3noc(=O)[nH]3)cc2)c(=O)n(C2C=CCCC2)c2nc(C)nn12 (stereo not shown) [Example 74, 4-(cyclohex-2-en-1-yl)-2-methyl-6-{[2′-(5-oxo-4,5-dihydro-1,2,4-oxadiazol-3-yl)biphenyl-4-yl]methyl}-7-propyl[1,2,4]triazolo[1,5-a]pyrimidin-5(4H)-one]
- IC50 [1]: 2.1 nM
- activation at 1 µM [2]: 25%

SMILES: CCCc1c(Cc2ccc(-c3ccccc3-c3noc(=O)[nH]3)cc2)c(=O)n(C2CCCCC2)c2nc(C)nn12 [Example 78, 4-cyclohexyl-2-methyl-6-{[2′-(5-oxo-4,5-dihydro-1,2,4-oxadiazol-3-yl)biphenyl-4-yl]methyl}-7-propyl[1,2,4]triazolo[1,5-a]pyrimidin-5(4H)-one]
- IC50 [1]: 1.8 nM
- activation at 1 µM [2]: 21%

SMILES: CCCc1c(Cc2ccc(-c3ccccc3-c3noc(=O)[nH]3)cc2)c(=O)n(C2CCC2)c2nc(C)nn12 [Example 83, 4-cyclobutyl-2-methyl-6-{[2′-(5-oxo-4,5-dihydro-1,2,4-oxadiazol-3-yl)biphenyl-4-yl]methyl}-7-propyl[1,2,4]triazolo[1,5-a]pyrimidin-5(4H)-one]
- IC50 [1]: 1.5 nM
- activation at 1 µM [2]: 16%
